Calls of active or inactive are those of the source. The rule behind the calls is not given here.
molecular target: Ubiquitin-conjugating enzyme E2 N (Homo sapiens) (UniProt P61088); test: NMR detection of UBE2N ligand binding – biophysical, purified protein (AID 1552); details: NMR binding to purified UBE2N
Sequence (P61088 whole entry, looked up): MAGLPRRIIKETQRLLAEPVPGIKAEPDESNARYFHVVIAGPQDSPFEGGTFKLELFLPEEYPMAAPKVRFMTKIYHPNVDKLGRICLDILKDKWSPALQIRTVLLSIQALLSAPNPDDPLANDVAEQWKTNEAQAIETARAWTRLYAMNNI

| SMILES | Kd |
| --- | --- |
| Cc1ccc(SCC(=O)N2CCOCC2)cc1 | > 4 mM (inactive) |
| Nc1nc(-c2ccc(F)c(F)c2)cs1 | > 4 mM (inactive) |
| CC(=O)Nc1ccccc1OCC(N)=O | > 4 mM (inactive) |
| CN(C)CCCN1CNC(=S)NC1 | > 4 mM (inactive) |
| OCc1ccc2c(c1)OCCCO2 | > 4 mM (inactive) |
| CCc1c(C(=O)Nc2ccncc2)csc1C | > 4 mM (inactive) |
| c1ccc2c(NC3=NCCS3)cccc2c1 | > 4 mM (inactive) |
| COc1ccc2c(c1)=C(c1sc(N)nc1O)C(=O)N=2 | > 4 mM (inactive) |
| CCNCC(O)c1ccc([N+](=O)[O-])cc1 (stereo not drawn) | > 4 mM (inactive) |
| COc1ccc(C(=O)NNC(=S)NC(C)=O)cc1 | > 4 mM (inactive) |
| COc1cc2c(c(OC)c1OC)-c1ccc(OC)c(=O)cc1[C@@H](NC(C)=O)CC2 | > 4 mM (inactive) |
| O=c1ccn([C@@H]2O[C@H](COP(=O)(O)OP(=O)(O)OP(=O)(O)O)[C@@H](O)[C@H]2O)c(=O)[nH]1 | > 4 mM (inactive) |
| O=C(Nc1ccccc1N1CCCC1)c1cccnc1 | > 4 mM (inactive) |
| CC(C)(C)C(=O)Nc1ncc(C(F)(F)F)cc1Cl | > 4 mM (inactive) |
| C(=N\n1cnnc1)/c1cccs1 | > 4 mM (inactive) |
| CNC(=S)Nc1ccc(C(=O)O)cc1 | > 4 mM (inactive) |
| Cc1cc(C)nc(/N=C(/N)N2CCOCC2)n1 | > 4 mM (inactive) |
| C[n+]1ccn(C/C(N)=N/O)c1 | > 4 mM (inactive) |
| O=C(c1cnsn1)N1CCN(c2ccccc2)CC1 | > 4 mM (inactive) |
| Cc1c(F)cccc1NS(=O)(=O)c1ccccc1C#N | > 4 mM (inactive) |
| COc1cc2c(cc1-c1cc3cc4ccoc4cc3oc1=O)OCO2 | > 4 mM (inactive) |
| O=C1c2ccccc2C(=O)N1OCc1ccccc1 | > 4 mM (inactive) |

| SMILES | Kd |
| --- | --- |
| CC(=O)Nc1ccc(N2CCOCC2)cc1 | > 4 mM (inactive) |
| CC(=O)OCC[C@H](C)CCC=C(C)C | > 4 mM (inactive) |
| Nc1nc2ncc(=O)[nH]c2c(=O)[nH]1 | > 4 mM (inactive) |
| COc1cc([C@@H]2c3cc4c(cc3[C@H](OC(C)=O)[C@H]3COC(=O)[C@@H]23)OCO4)cc(OC)c1OC | > 4 mM (inactive) |
| C/C=C1\[C@H]2C=C(C)C[C@]1(N)c1ccc(=O)[nH]c1C2 | > 4 mM (inactive) |
| NC1=NN(c2ccccc2)C(=O)C1 | > 4 mM (inactive) |
| COC(=O)c1ccc(Cl)c(NC(C)=O)c1 | > 4 mM (inactive) |
| Nc1nc(-c2ccccc2)ns1 | > 4 mM (inactive) |
| O=C(O)CCc1ccc2c(c1)OCO2 | > 4 mM (inactive) |
| Nc1ccc2[nH]ccc2c1 | > 4 mM (inactive) |
| NC(=O)CSCc1ccc(Br)cc1 | > 4 mM (inactive) |
| COC(=O)C1CCN(c2ccc(Cl)nn2)CC1 | > 4 mM (inactive) |
| CC(C)=CC(=O)Nc1ccc(S(N)(=O)=O)cc1 | > 4 mM (inactive) |
| Cc1ccccc1NC(=O)CC1NCCNC1=O (stereo not drawn) | > 4 mM (inactive) |
| O=C(NCc1ccccn1)c1ccc(Br)s1 | > 4 mM (inactive) |
| CN(C)c1ccc(C2CC(=O)CC(=O)C2)cc1 | > 4 mM (inactive) |
| CCOC(=O)C(C)c1n[nH]c(=O)c2ccccc12 (stereo not drawn) | > 4 mM (inactive) |
| CNC(=O)N1CCN(C(=O)NC)CC1 | > 4 mM (inactive) |
| CN1CCC2(CC1)CC1CC3C=CC1(CN2)O3 (stereo not drawn) | > 4 mM (inactive) |
| O=c1[nH]cnc2nn(-c3ccccc3)nc12 | > 4 mM (inactive) |
| COc1ccc([C@@H]2CC(=O)c3c(O)cc(O)cc3O2)cc1O | > 4 mM (inactive) |
| O=C(NCc1ccccc1)c1ccc[n+]([O-])c1 | > 4 mM (inactive) |

| SMILES | Kd |
| --- | --- |
| CC(=O)n1nc(-c2cccnc2)nc1N | > 4 mM (inactive) |
| CCC(C)C(NC)C(=O)O (stereo not drawn) | > 4 mM (inactive) |
| CN(C)Cc1c(N)cccc1O | > 4 mM (inactive) |
| CN(Cc1nc2ccccc2n1C)C(=O)c1cccs1 | > 4 mM (inactive) |
| Nc1ccc(NC(=O)c2ccco2)c(Cl)c1 | > 4 mM (inactive) |
| Nc1cccc(-c2cnco2)c1 | > 4 mM (inactive) |
| Cn1nnc2cc(C(=O)Nc3cccnc3)ccc21 | > 4 mM (inactive) |
| Cc1cc(C)c2ccc[n+]([O-])c2c1O | > 4 mM (inactive) |
| CSc1nc(C)cc(-n2ccc(=O)[nH]c2=O)n1 | > 4 mM (inactive) |
| Nc1cccc(S(N)(=O)=O)c1 | > 4 mM (inactive) |
| CC(C)=CCc1c(O)cc2occ(-c3ccc4c(c3)OCO4)c(=O)c2c1O | > 4 mM (inactive) |
| Cc1ccc(F)cc1NC(=O)c1ccc2c(c1)OCO2 | > 4 mM (inactive) |
| COc1cc2c(cc1O)CCNC2C (stereo not drawn) | > 4 mM (inactive) |
| C[n+]1ccc(C(=O)[O-])cc1 | > 4 mM (inactive) |
| Cc1nnc(Nc2cccnc2)[nH]c1=O | > 4 mM (inactive) |
| CC(C)c1c(O)ccc2c1CCC1[C@@](C)(C=O)CCC[C@]21C (stereo partly drawn) | > 4 mM (inactive) |
| CSc1nnc(-c2ccccc2NC(C)=O)o1 | > 4 mM (inactive) |
| CCOC(=O)c1cc(C)n(C)n1 | > 4 mM (inactive) |
| CCC(C)C(=O)O[C@@H]1C[C@@]2(C)[C@H](c3ccoc3)OC(=O)CC23OC2(C)O[C@]14[C@]1(C)[C@@H](CC(=O)OC)C5(C)CC1(O)[C@](O)(C5OC(=O)C1(C)OC1C)[C@@H](OC(C)=O)[C@]34O2 (stereo partly drawn) | > 4 mM (inactive) |
| CC(=O)Nc1cc2c(cc1C(=O)C(C)C)OCCO2 | > 4 mM (inactive) |
| O=C1NC(=S)N/C1=C/c1ccsc1 | > 4 mM (inactive) |
| O=C1CCCN1C(=O)CN1CCOCC1 | > 4 mM (inactive) |

| SMILES | Kd |
| --- | --- |
| COC(=O)c1ccc(N2CCOCC2)nc1 | > 4 mM (inactive) |
| S=C=NCc1ccccc1 | > 4 mM (inactive) |
| O=c1c[n+]([O-])c2ccccc2n1OCc1ccccn1 | > 4 mM (inactive) |
| CCCCN1C(=O)N(C)C2NC(=O)NC21 (stereo not drawn) | > 4 mM (inactive) |
| CC(C)(C)C(=O)N1CCCC1C(=O)O (stereo not drawn) | > 4 mM (inactive) |
| S=C(Nc1ccccc1)Nc1nncs1 | > 4 mM (inactive) |
| c1ccc2[nH]c(NCCN3CCOCC3)nc2c1 | > 4 mM (inactive) |
| CN1CCN(Cc2cccnc2)CC1 | > 4 mM (inactive) |
| Cc1ccc(SCc2cc(=O)n3[nH]cnc3n2)cc1 | > 4 mM (inactive) |
| Cc1cc(C)n2nc(N)nc2n1 | > 4 mM (inactive) |
| COC(=O)c1c[nH]c2ccccc12 | > 4 mM (inactive) |
| O=C1CCCN1C(=O)c1ccc(F)cc1 | > 4 mM (inactive) |
| N#Cc1cnc(N2CCCCC2)nc1N | > 4 mM (inactive) |
| COc1cccc(-c2nn(-c3ccccc3)cc2CO)c1 | > 4 mM (inactive) |
| CC1(C)C(=O)[C@@H]2C[C@@]3(O)C4=CC(=O)O[C@@H](c5ccoc5)[C@]4(C)CCC3C(C)(C2=O)[C@H]1CC(=O)O (stereo partly drawn) | > 4 mM (inactive) |
| O=C(Nc1ccon1)c1ccc(Cl)s1 | > 4 mM (inactive) |
| O=C(Cc1c(F)cccc1Cl)Nc1ccon1 | > 4 mM (inactive) |
| CC(=O)Oc1ccc(N2C(=O)C3C4C=CC(O4)C3C2=O)cc1 (stereo not drawn) | > 4 mM (inactive) |
| O=C(CSc1nc2ccccc2[nH]1)N1CCCCC1 | > 4 mM (inactive) |
| NC(c1ccccc1)c1ccccn1 (stereo not drawn) | > 4 mM (inactive) |
| Cc1ccc(O)c(NC(=O)c2ccco2)c1 | > 4 mM (inactive) |
| CSc1nc2[nH]ncc2c(=O)[nH]1 | > 4 mM (inactive) |

Reference: PubChem BioAssay AID1552 (Sanford-Burnham Center for Chemical Genomics, 2009)
